“Also recorded” adds a separate entry of the source.
Tests used:
[1] = tested on: LNCaP; assay: MTT cell viability assay, LNCaP; assay type: cell-based, human; settings: 96 hours exposure; for GI50: Homo sapiens
Procedure: (§1) All cell lines were obtained from American Type Culture Collection (Rockville, Md.) and maintained in RPMI 1640 media supplemented with 10% fetal bovine serum and 5% penicillin/streptomycin solution. Cells were grown as a monolayer in a humidified incubator (5% CO2) at 37° C. To determine the effect of the compounds on cell proliferation, cells were plated (2500 cells/well) in 96-well cell culture dishes (Corning, Inc. Corning, N.Y.). After a 24 hr attachment period, media was replaced with fresh media containing compounds (0.01 μM-100 μM) or vehicle (95% ethanol). The cells were then allowed to grow in the presence of the drugs for 96 hours. After 96 hours, relative cell viability was assessed using the MTT reagent (3-(4,5-dimethylthiazol-2-yl)-2,5-diphenyltetrazolium bromide) as described in Patel, et al. 2004^43. Experiments were carried out three times with six replicates per dose per experiment (n=18). Results were plotted using the average of each dose over all three experiments and fitted with a best-fit sigmoidal dose response variable slope curve using GraphPad Prism 4.01 (GraphPad Software, Inc.). […] Combination index (CI) was calculated as previously described^44. CI values less than 1 are considered synergistic.

[2] = tested on: DU-145; assay: MTT cell viability assay, DU-145; assay type: cell-based; settings: for GI90 / GI50: DU-145, MTT, 96 hours exposure
Procedure: as §1

[3] = tested on: PC-3; assay: MTT cell viability assay, PC-3; assay type: cell-based; settings: for GI50 / GI90: MTT, 96 hours exposure
Procedure: Cells were grown as a monolayer in a humidified incubator (5% CO2) at 37° C. To determine the effect of the compounds on cell proliferation, cells were plated (2500 cells/well) in 96-well cell culture dishes (Corning, Inc. Corning, N.Y.). […] The cells were then allowed to grow in the presence of the drugs for 96 hours. […] Experiments were carried out three times with six replicates per dose per experiment (n=18). […] Combination index (CI) was calculated as previously described^44. CI values less than 1 are considered synergistic.

[4] = tested on: PC-3 cells; assay: Cell cycle analysis by flow cytometry in synchronized PC-3 cells; assay type: cell-based; settings: 20 μM
Procedure: Cells were synchronized in the G1/G0 phase by maintaining them in 0.2% FBS-containing media for 96 hours. After starvation, media was replaced with normal growth media (10% FBS) containing vehicle (95% ethanol) or 20 μM VN/124-1 for 12, 18, and 24 hours. At each timepoint, cells were fixed in 70% ethanol at −20° C. for at least 24 hours. Fixed cells were then incubated with 1 mL propidium iodide (PI) staining buffer (1 mg/ml PI, 0.1% Triton-X, and 10 μg/ml RNase A dissolved in PBS) for 1 hour at room temperature and DNA content was measured by flow cytometry analysis using a FACSort flow cytometer (Becton Dickinson, San Jose, Calif.); 15,000 events were analyzed for each sample. ModFit LT version 3.1 (Verity Software House Ind., ME) was used to analyze cell cycle distribution.

[5] = Oral bioavailability in rat; settings: in vivo
[6] = mice, s.c. 50 mg/kg, cited from earlier work
[7] = tested on: PC-3 cells; assay: Real-time PCR (qRT-PCR) of stress response and cell cycle genes in PC-3 cells; assay type: cell-based; settings: 20 μM, 24 hr
Procedure: Cells were treated, lysed and RNA collected and quantified using the same method outlined above. Cells were dosed independently on three separate days (n=3). 1 μg of total RNA was converted to cDNA using ReactionReady™ First Strand cDNA Synthesis kit (SuperArray Bioscience Corp.; Frederick, Md.) following the manufacturer's protocol. 50 ng of template cDNA was then used in subsequent real-time PCR (qRT-PCR) reactions. Template was combined with target gene specific or β-actin control RT^2 PCR Primer Sets, RT^2 Real-Time™ SYBR Green/Rox Master Mix (SuperArray Bioscience Corp.), and ddH2O for a final reaction volume of 25 μL and run on a 7900HT Fast Real-Time PCR system (Applied Biosystems; Foster City, Calif.) following the manufacturer's protocol. Fold changes were calculated using the ΔΔCt method as recommended by the manufacture's protocol.

[8] = tested on: androgen-dependent LAPC4 human prostate tumor xenograft; settings: cited from earlier work
[9] = tested on: PC-3 cells; assay: Ca2+ transients in PC-3 cells (Fluo-3AM); assay type: cell-based; settings: 20 μM; for transient rise in [Ca2+]i, mean ΔF/Fo: Fluo-3AM
Procedure: (§2) PC-3 Cells were loaded with either fura-2 or fluo-3 indicator by incubation with 2 μM fura-2/AM or 2 μM fluo-3/AM in RPMI 1640 medium containing 10% fetal bovine serum for >60 min at room temperature. During experiments, the coverslips were mounted in a flow chamber and superfused with oxygenated Locke solution containing (in mM): 10 glucose, 136 NaCl, 5.6 KCl, 1.2 NaH2PO4, 14.3 NaHCO3, 1.2 MgCl2, and 2.2 CaCl2, pH 7.4, at room temperature (22-24° C.).
(§3) Cells loaded with fura-2 were placed in a perfusion chamber mounted on an inverted microscope (TE200; Nikon, Tokyo, Japan) equipped with a UV-transmitting objective (SuperFluor, 40×, N.A. 1.4, Nikon). Fura-2 was alternately excited by 340 nm and 380 nm light from monochrometers (Deltascan Illumination System, Photonic Technology International (PTI), South Brunswick, N.J.) and fura-2 emission was passed through a 515 nm longpass filter before detection by a cooled CCD camera (Retiga 2000R, Q-Imaging, Burnaby, Canada). For measurement of Ca^2+ transients in individual cells, coverslips with fluo-3 loaded cells were excited by the output of a 100 W mercury arc lamp that passed through a 480 nm bandpass filter (30 nm bandwidth). Fluorescence emission was passed through a 515 nm longpass filter before capture by a cooled CCD camera (Retiga 2000R, Q-Imaging). Image acquisition was performed with QCapture Pro (Q-Imaging) and analysis was performed with ImageJ (U.S. National Institutes of Health, Bethesda, Md., USA).
Fluo-3 Ca^2+ indicator measurements are reported as the fractional change in fluorescence intensity relative to baseline (ΔF/F0), which was determined as follows. Within a temporal sequence of fluorescence images, a region of interest (ROI) was drawn around each cell to be analyzed. The fluorescence signal from each cell was calculated as the pixel-averaged intensity within each ROI. In these experiments, a slight downward drift in baseline was typically observed, which was principally attributable to photo-bleaching of the indicator. […]

[10] = tested on: PC-3 cells; assay: Microarray global gene expression in PC-3 cells; assay type: cell-based; settings: 20 μM, 24 hrs
Procedure: After 24 hour exposure to the agent, total RNA was isolated using the Qiagen RNeasy-Mini Kit following the manufacturer's protocol. Experiments were carried out in duplicate, with triplicate samples (dosed independently on 3 different days) from each experiment pooled for analysis on a single chip. Samples were hybridized to a GeneChip® Human Genome Focus Array (Affymetrix Inc., U.S.A.) and analyzed using an Affymetrix Genechip® Scanner 3000 according to the manufacturer's protocol. Gene ontologies were identified using the online Database for Annotation, Visualization, and Integrated Discovery (DAVID) provided by the National Institute of Allergy and Infectious Diseases and the National Institute of Health. […] Stringent criteria of a minimum EASE/P-Value threshold of 0.001 and a gene count threshold of 5 were used to identify altered gene ontologies.

[11] = tested on: PC-3 cells; assay: Absolute [Ca2+]i in PC-3 cells (Fura-2AM); assay type: cell-based; settings: for average [Ca2+]i: Fura-2AM, control 36.49 nM
Procedure: as §2, §3
Fluo-3 Ca^2+ indicator measurements are reported as the fractional change in fluorescence intensity relative to baseline (ΔF/F0), which was determined as follows. Within a temporal sequence of fluorescence images, a region of interest (ROI) was drawn around each cell to be analyzed. The fluorescence signal from each cell was calculated as the pixel-averaged intensity within each ROI. In these experiments, a slight downward drift in baseline was typically observed, which was principally attributable to photo-bleaching of the indicator. In such cases, the drift was always well fit by a low-amplitude single-exponential decay. The fitted baseline value (F0) at every time point was then used to calculate ΔF/F0. ΔF/F0 values are reported as mean±SE. For fura-2 measurements, [Ca^2+]i was derived using the ratio method of Grynkiewicz et al.^46

[12] = tested on: PC-3 cells; assay: Western blot of ERSR related proteins in PC-3 cells; assay type: cell-based
Procedure: Protein was isolated, subjected to SDS-PAGE, transferred and imaged as previously described^45. All primary antibodies were purchased from Cell Signaling (Danvers, Mass.). Quantitation of relative protein expression was determined via densitometry using the software ImageQuant 5.0 (Molecular Dynamics) with each protein normalized to its respective loading control. Results represent the average of at least three independent experiments, with representative blots shown.

[13] = given clinically as the prodrug abiraterone acetate; cited from earlier work

## C[C@]12CC[C@H](O)CC1=CC[C@@H]1[C@@H]2CC[C@]2(C)C(n3ccnc3)=CC[C@@H]12 [Compound 17, 3β-Hydroxy-17-(1H-imidazol-1-yl)androsta-5,16-diene]
[1]
  GI90: 36.49 µM
  GI50: 2.47 µM
[2]
  GI90: 31.62 µM
[2]; Homo sapiens
  GI50: 5.31 µM
[3]; Homo sapiens
  GI50: 1.86 µM
[3]
  GI90: 30.41 µM

## C[C@]12CC[C@H](O)CC1=CC[C@@H]1[C@@H]2CC[C@]2(C)C(n3cnc4ccccc43)=CC[C@@H]12 [Compound 5, 3β-hydroxy-17-(1H-benzimidazole-1-yl)androsta-5,16-diene]
[4]
  exit from G1 phase of the cell cycle: prevent the exit from G1 phase
[1]
  GI90: 31.99 µM
  GI50: 3.15 µM
[2]
  GI90: 15.95 µM
[2]; Homo sapiens
  GI50: 7.55 µM
[5]
  bioavailability: ~10%
[6]
  detectability in plasma at 8 hours: neither was detectable
  peak plasma levels: 16.82 ng/mL
[3]; Homo sapiens
  GI50: 7.82 µM
[3]
  GI90: 18.62 µM
[7]
  CHOP gene expression: strongly up-regulated
  activating transcription factor 4 (ATF4) gene expression: up-regulated
  asparagines synthetase (ASNS) gene expression: up-regulated
  cyclin D1 mRNA levels: not affected
  cyclin E2 mRNA: significantly reduced
[8]; 50 mg/kg/twice daily, P=0.00065
  reduction in the mean final tumor volume compared with controls: 93.8%
[8]; Compound 6 at 0.15 mmol/kg twice daily
  effect on growth of LAPC4 tumor xenograft: very effective; also recorded: marked suppression
[9]; extracellular calcium present
  transient rise in [Ca2+]i, mean ΔF/Fo: 0.613
[9]; extracellular calcium removed
  transient rise in [Ca2+]i, mean ΔF/Fo: 0.967
[9]; pretreatment with SERCA inhibitor CPA
  Ca2+ transient after depletion of ER calcium stores: completely abolished
[10]
  down-regulated gene ontologies: associated with the cell cycle, especially S-phase (DNA replication)
  most enriched up-regulated gene ontologies: those relating to stress and metabolism, in particular amino acid metabolism
[10]; validated by qRT-PCR
  S100P calcium binding protein gene expression: most highly up-regulated gene
[11]; 1 μM Compound 5, 2 hours
  effect on [Ca2+]i: did not have a significant effect
[11]; 5 μM, 2 hours
  average [Ca2+]i: 79.13 nM
[11]; 10 μM, 2 hours
  average [Ca2+]i: 96.63 nM
[11]; 20 μM, 2 hours
  average [Ca2+]i: 79.89 nM
[12]; 20 μM, 6 and 24 hours, PC-3
  phosphorylation of eIF2α: induced the phosphorylation of eIF2α
[12]; PC-3, after 24 hrs
  cyclin D1 protein: down-regulation of cyclin D1 protein significantly

## C[C@]12CC[C@H](O)CC1=CC[C@@H]1[C@@H]2CC[C@]2(C)C(n3cncn3)=CC[C@@H]12 [Compound 16, 3β-Hydroxy-17-(1H-1,2,4-triazol-1-yl)androsta-5,16-diene]
[1]
  GI90: >100 µM
  GI50: 1.05 µM
[2]
  GI90: >100 µM
[2]; Homo sapiens
  GI50: 11 µM
[3]; Homo sapiens
  GI50: 2.91 µM
[3]
  GI90: >100 µM

## C[C@]12CC[C@H](O)CC1=CC[C@@H]1[C@@H]2CC[C@]2(C)C(c3cccnc3)=CC[C@@H]12 [Abiraterone, abiraterone, reference compound]
[1]
  GI90: 25.12 µM
[2]
  GI90: >100 µM
[13]
  peak plasma concentrations: below 1 μM
[3]
  GI90: >100 µM

## C[C@]12CCC(=O)C=C1CC[C@@H]1[C@@H]2CC[C@]2(C)C(n3cnc4ccccc43)=CC[C@@H]12 [Compound 6, 17-(1H-benzimidazole-1-yl)androsta-4,16-diene-3-one]
[1]
  GI90: 13.46 µM
[2]
  GI90: 15.53 µM
[6]; plasma
  terminal half-lives: 39.93 min
[6]
  detectability in plasma at 8 hours: neither was detectable
  peak plasma levels: 5.15 ng/mL
[3]
  GI90: 8.07 µM

## C[C@]12CC[C@H](O)CC1=CC[C@@H]1[C@@H]2CC[C@]2(C)C(=O)CC[C@@H]12 [DHEA, dihydroandrosterone, reference compound]
[2]
  GI50: > 100 µM
[2]; up to 100 μM
  growth inhibitory activity against DU-145 cells: lacked any growth inhibitory activity
[3]
  fold less potent than Compound 5 in inhibiting PC-3 cells: ~10 fold
  GI50: 67.6 µM
  GI90: >100 µM
[11]; 20 μM DHA, 2 hours
  effect on [Ca2+]i: did not have a significant effect
[12]; 20 μM DHA, PC-3
  effect on the protein markers measured: no significant effect

Reference: patent US9295679B2, “Prodrugs of C-17-heteroaryl steroidal CYP17 inhibitors/antiandrogens: synthesis, in vitro biological activities, pharmacokinetics and antitumor activity” (University of Maryland, Baltimore, priority 2008, dated 2016)
